# From patent publication US8063101B2, “Carotenoid analogs and derivatives for the prevention of platelet aggregation” (Cardax Pharmaceuticals, Inc., priority 2007, dated 2011)
# System: left carotid artery (LCA) thrombosis
# Test: Canine thrombosis model: left carotid artery reocclusion following rt-PA fibrinolytic therapy
# Assay type: in vivo, beagle dogs
# Details: for Incidence of Re-occlusion: 0.9% NaCl group 5/7; for Platelet Count (Post rt-PA) / Time to thrombolysis: mean±SEM; for reduction in thrombus weights compared to 0.9% NaCl solution: end of protocol
# Experimental: The experimental model used is a modification of that described by Hong, et al., (Thromb Res 117: 333-342, 2006), Rebello, et al., (Arterioscler Thromb Vasc Biol 18: 954-960, 1998), and Rote, et al. (Cardiovasc Res 27: 500-507, 1993). Healthy male or female purpose-bred beagle dogs (9-13 kg) were anesthetized with sodium pentobarbital (30 mg/kg, i.v.), intubated and ventilated with room air at a tidal volume of 30 ml/kg and a rate of 12 breaths per minute. The left carotid artery (LCA) was exposed by blunt dissection using care not to injure the vessel. An external adjustable stainless steel constrictor was shaped to fit each vessel and adjusted with a nylon screw (2 mm in diameter) to reduce the pulsatile flow pattern by 50% without altering the mean carotid artery blood flow rate. Vascular injury was accomplished with the application of a low anodal current to the intimal surface of the vessel via an intravascular electrode composed of a Teflon® insulated, silver-coated, copper wire. The intravascular electrode was connected to the positive pole (anode) of a dual-channel square wave generator (Grass S88 stimulator) and a Grass Constant Current Unit; model CCUIA (Grass Instrument Division, Astro-Med, Inc. West Warwick, R.I.). The cathode was attached at a remote subcutaneous site. The current (300 μA) applied to the intimal surface of the vessel was monitored continuously. The intravascular electrode and mechanical constrictor were upstream with respect to the flow probe. Blood flow in the carotid artery was quantified using a graded patency scoring system of 0-3 as described previously (16), in which a score of 0 represents no flow (total occlusion), 1-2 represents varying degrees of reduced and cyclic patterns of flow and 3 represents non-oscillatory or uninterrupted blood flow.
# FIG. 8 illustrates the experimental protocol. Twenty-eight dogs were randomized between four treatment groups receiving either DDA (10, 30 or 50 mg/kg i.v. n=7 per group) or 0.9% NaCl (n=7). Experimental thrombosis of the left carotid artery (LCA) was induced to achieve total occlusion of blood flow. Thirty minutes later, the animals received an intravenous infusion of DDA or an equivalent volume of 0.9% NaCl solution for thirty minutes (flow rate depended on dose of DDA). The drug treatment was followed by intra-carotid administration of rtPA (0.54 μg/kg bolus+3.26 μg/kg/h infusion) delivered immediately proximal to the occlusive thrombus. The infusion of rtPA was discontinued 10 min after establishing 20% of the original flow. The end-point determinations consisted of: (1) time to thrombolysis, (2) incidence of LCA reocclusion (secondary thrombosis), (3) vessel patency scores assessed by dynamic flow recordings, and (4) thrombus weight.
# The data are expressed as mean±SEM and were analyzed by one-way analysis of variance for group comparisons followed by a Dunnett's post hoc t-test to determine the level of significance. The incidence of carotid artery reocclusion was compared between the groups by chi-square test. The change over time in the vessel blood flow patency score was compared between two groups by two-way analysis of variance followed by Bonferroni post-tests to determine the level of significance. Values are considered statistically different at p<0.05.
# [1] = DDA 10 mg/kg i.v. followed by rt-PA
# [2] = DDA 30 mg/kg i.v. followed by rt-PA
# [3] = DDA 50 mg/kg i.v. followed by rt-PA
structure (smiles),measurement,setting,value
"CC1=C(/C=C/C(C)=C/C=C/C(C)=C/C=C/C=C(C)/C=C/C=C(C)/C=C/C2=C(C)C(=O)C(OC(=O)CCC(=O)O)CC2(C)C)C(C)(C)CC(OC(=O)CCC(=O)O)C1=O (centres unmarked) [DDA, Disodium disuccinate astaxanthin]",Incidence of Re-occlusion,[1],6/7
same,Platelet Count (Post rt-PA),[1],352 ± 37
same,Time to thrombolysis,[1],20.3 ± 6.7 min
same,arterial patency score (0-3),"DDA 10 mg/kg, 0-30 min after rt-PA",1.4 ± 0.2
same,arterial patency score (0-3),"DDA 10 mg/kg, 30-60 min after rt-PA",1.3 ± 0.4
same,arterial patency score (0-3),"DDA 10 mg/kg, 60-90 min after rt-PA",1.1 ± 0.3
same,arterial patency score (0-3),"DDA 10 mg/kg, 90-120 min after rt-PA",1.1 ± 0.4
same,arterial patency score (0-3),"DDA 10 mg/kg, 120-150 min after rt-PA",0.4 ± 0.4
same,arterial patency score (0-3),"DDA 10 mg/kg, 150-180 min after rt-PA",0.4 ± 0.4
same,Incidence of Re-occlusion,[2],3/7
same,Platelet Count (Post rt-PA),[2],316 ± 32
same,Time to thrombolysis,[2],20.6 ± 7.9 min
same,reduction in thrombus weights compared to 0.9% NaCl solution,DDA 30 mg/kg i.v.,43±4%
same,arterial patency score (0-3),"DDA 30 mg/kg, 0-30 min after rt-PA",1.3 ± 0.2
same,arterial patency score (0-3),"DDA 30 mg/kg, 30-60 min after rt-PA",1.3 ± 0.4
same,arterial patency score (0-3),"DDA 30 mg/kg, 60-90 min after rt-PA",1.0 ± 0.4
same,arterial patency score (0-3),"DDA 30 mg/kg, 90-120 min after rt-PA",1.6 ± 0.5
same,arterial patency score (0-3),"DDA 30 mg/kg, 120-150 min after rt-PA",1.1 ± 0.5
same,arterial patency score (0-3),"DDA 30 mg/kg, 150-180 min after rt-PA",1.4 ± 0.5
same,Incidence of Re-occlusion,[3],1/7
same,Platelet Count (Post rt-PA),[3],363 ± 66
same,Time to thrombolysis,[3],24.0 ± 6.0 min
same,reduction in thrombus weights compared to 0.9% NaCl solution,DDA 50 mg/kg i.v.,42±5%
same,arterial patency score (0-3),"DDA 50 mg/kg, 0-30 min after rt-PA",1.9 ± 0.3
same,arterial patency score (0-3),"DDA 50 mg/kg, 30-60 min after rt-PA",2.4 ± 0.3
same,arterial patency score (0-3),"DDA 50 mg/kg, 60-90 min after rt-PA",2.3 ± 0.4
same,arterial patency score (0-3),"DDA 50 mg/kg, 90-120 min after rt-PA",2.3 ± 0.5
same,arterial patency score (0-3),"DDA 50 mg/kg, 120-150 min after rt-PA",2.3 ± 0.4
same,arterial patency score (0-3),"DDA 50 mg/kg, 150-180 min after rt-PA",2.3 ± 0.5
same,time to clot lysis compared with 0.9% NaCl-treated animals,"DDA 10, 30 or 50 mg/kg followed by rt-PA",similar
same,whole blood platelet counts,"dog, in vivo",unaffected
same,vessel patency score during the protocol,intermediate and highest doses of DDA (30 and 50 mg/kg),progressive improvement
